Source: EP3131902B1, “COMPOUNDS AS MODULATORS OF ROR GAMMA” (Boehringer Ingelheim International GmbH, priority 2014, dated 2015)

target: T1, RORγ (Homo sapiens, UniProt P51449); experiment: Reporter Gene Assay (RGA): nuclear receptor transactivation assay, inhibition of RORγ transactivation of a luciferase reporter in transiently transfected HEK 293 cells; assay type: cell-based; conditions: not given
T1 construct: expressed in transfected cells; host or cells: HEK 293 cells, transiently transfected
T1 sequence (P51449 269-508 limits assumed): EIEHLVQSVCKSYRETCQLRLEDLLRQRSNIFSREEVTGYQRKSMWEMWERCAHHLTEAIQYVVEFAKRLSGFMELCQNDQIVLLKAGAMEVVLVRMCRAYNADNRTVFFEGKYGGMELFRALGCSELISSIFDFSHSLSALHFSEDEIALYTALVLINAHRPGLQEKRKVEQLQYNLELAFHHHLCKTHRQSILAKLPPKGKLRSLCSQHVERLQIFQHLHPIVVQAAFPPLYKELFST

Row | SMILES | IC50
1 | CCc1ncnc(C2CC2)c1-c1ncc2nc(NCc3ccc(S(C)(=O)=O)cc3)c(=O)n([C@H](C)CC)c2n1 [Example 191] | 0.086 µM

same assay, conditions: read-out: RGA IC50

Row | SMILES | IC50
2 | CCS(=O)(=O)N1CC[C@@H](CNc2nc3cnc(-c4c(C)ncnc4C4CC4)nc3n([C@@H](C)C3CC3)c2=O)C1 [Example 211] | 0.225 µM
3 | COc1ncnc(C2CC2)c1-c1ncc2nc(NCc3ccc(S(N)(=O)=O)cn3)c(=O)n(CC3CCC3)c2n1 [Example 116] | 0.3 µM
4 | CS(=O)(=O)c1ccc(CNc2nc3cnc(-c4c(C5CC5)ncnc4C4CC4)nc3n(C3CC3)c2=O)cc1 [Example 46] | 3 µM
5 | CC[C@@H](C)n1c(=O)c(NCc2ccc(S(C)(=O)=O)cc2)nc2cnc(-c3c(OC)ncnc3C3CC3)nc21 [Example 190] | 0.13 µM
6 | COc1ncnc(C2CC2)c1-c1ncc2nc(NCc3ccc(S(C)(=O)=O)cn3)c(=O)n(C(C)C)c2n1 [Example 149] | 0.305 µM
7 | CC[C@@H](C)n1c(=O)c(NCc2ncc(S(=O)(=O)CC)cn2)nc2cnc(-c3c(OC)ncnc3C3CC3)nc21 [Example 184] | 0.295 µM
8 | CNS(=O)(=O)c1ccc(CNc2nc3cnc(-c4c(OC)ncnc4C4CC4)nc3n(C(C)C)c2=O)nc1 [Example 155] | 0.185 µM
9 | Cc1ncnc(C2CC2)c1-c1ncc2nc(NCc3ccc(S(C)(=O)=O)cn3)c(=O)n(C3CCC3)c2n1 [Example 242] | 0.395 µM
10 | Cc1ncnc(C2CC2)c1-c1ncc2nc(NCc3ccc(C(=O)O)cc3)c(=O)n([C@@H](C)C3CC3)c2n1 [Example 200] | 0.855 µM
11 | CCS(=O)(=O)c1ccc(CNc2nc3cnc(-c4cnc(N)nc4C(C)C)nc3n(C(C)C)c2=O)nc1 [Example 140] | 0.73 µM
12 | CCS(=O)(=O)c1ccc(CNc2nc3cnc(-c4c(C5CC5)ncnc4C4CC4)nc3n([C@H]3CCOC3)c2=O)cc1 [Example 174] | 0.275 µM
13 | CCS(=O)(=O)c1ccc(CNc2nc3cnc(-c4c(OC)ncnc4C4CC4)nc3n(C3(C)CC3(F)F)c2=O)nc1 (centres unmarked) [Example 36] | 0.88 µM
14 | CCc1ncnc(C2CC2)c1-c1ncc2nc(NCc3ccc(S(C)(=N)=O)cc3)c(=O)n([C@@H](C)C3CC3)c2n1 (some centres unmarked) [Example 210] | 0.15 µM
15 | CCS(=O)(=O)N1CCC(CNc2nc3cnc(-c4c(OC)ncnc4C4CC4)nc3n([C@H](C)C3CC3)c2=O)CC1 [Example 76] | 1.6 µM
16 | CCS(=O)(=O)c1ccc(CNc2nc3cnc(-c4c(C)nc(N)nc4C4CC4)nc3n([C@H](C)C3CCC3)c2=O)nc1 [Example 233] | 0.155 µM
17 | CCS(=O)(=O)N[C@H]1C[C@H](CNc2nc3cnc(-c4c(C)ncnc4C4CC4)nc3n([C@@H](C)C3CC3)c2=O)C1 [Example 202] | 0.455 µM
18 | COCCS(=O)(=O)N1CCC(CNc2nc3cnc(-c4c(OC)ncnc4C4CC4)nc3n([C@@H](C)C3CC3)c2=O)CC1 [Example 169] | 0.145 µM
19 | CC[C@@H](C)n1c(=O)c(NCc2ccc(S(C)(=O)=O)cc2)nc2cnc(-c3c(C)ncnc3C3CC3)nc21 [Example 189] | 0.12 µM
20 | CCc1ncnc(C2CC2)c1-c1ncc2nc(NCc3ccc(S(=O)(=O)CC)cc3)c(=O)n([C@H]3CCOC3)c2n1 [Example 175] | 0.38 µM
21 | CCS(=O)(=O)c1ccc(CNc2nc3cnc(-c4c(C)ncnc4C4CC4)nc3n(CC(C)(C)F)c2=O)nc1 [Example 105] | 1.6 µM
22 | CC[C@H](C)n1c(=O)c(NCc2ccc(S(=O)(=O)CC)cn2)nc2cnc(-c3c(C)ncnc3C(F)(F)F)nc21 [Example 58] | 0.42 µM
23 | COc1ncnc(C2CC2)c1-c1ncc2nc(NCc3ccc(S(C)(=O)=O)cn3)c(=O)n([C@@H](C)C(F)(F)F)c2n1 [Example 181] | 0.175 µM
